Measured values reported in PMC10746280, “Bacterial efflux pump modulators prevent bacterial growth in macrophages and under broth conditions that mimic the host environment” (mBio, 2023).

Assays:
RAW 264.7 macrophages = test: SAFIRE macrophage assay: host toxicity (adherent macrophage count, morphology); assay type: cell-based
In short: (§1)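 Compound or DMSO added 2 h after gentamicin-protected infection (MOI ~30, sifB::gfp SL1344) of RAW 264.7 cells and left to 18 h. Fixed cells imaged; intracellular GFP area per macrophage gives bacterial load, while retained adherent MitoTracker Red-stained macrophages define host toxicity.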

[1] = tested on: S. Typhimurium SL1344 (sifB::gfp) in RAW 264.7 macrophages; test: SAFIRE macrophage assay: intracellular bacterial load (GFP signal within macrophages); assay type: cell-based, Salmonella enterica serotype Typhimurium; conditions: for 5 uM Avg Antibacterial Score / 25 uM Avg Antibacterial Score: 'Toxic' given instead of a score
In short: as §1

CNC1CCN(C[C@H](O)COc2ccc(Cl)c(Cl)c2)C1 (stereo partly shown) [CU162]
5 uM Avg Cell # Score (RAW 264.7 macrophages): 124 | 25 uM Avg Cell # Score (RAW 264.7 macrophages): 126 | 5 uM Avg Antibacterial Score [1]: 68 | 25 uM Avg Antibacterial Score [1]: 46

CNC1CCN(C[C@@H](O)COc2ccc(Cl)c(Cl)c2)C1 (stereo partly shown) [CU163]
5 uM Avg Cell # Score (RAW 264.7 macrophages): 101 | 25 uM Avg Cell # Score (RAW 264.7 macrophages): 111 | 5 uM Avg Antibacterial Score [1]: 65 | 25 uM Avg Antibacterial Score [1]: 47

OC1CCN(CC(O)COc2ccc(Cl)c(Cl)c2)CC1 (stereo not shown) [CU164]
5 uM Avg Cell # Score (RAW 264.7 macrophages): 98 | 25 uM Avg Cell # Score (RAW 264.7 macrophages): 126 | 5 uM Avg Antibacterial Score [1]: 106 | 25 uM Avg Antibacterial Score [1]: 82

NC1CCN(CC(O)COc2ccc(Cl)cc2)C1 (stereo not shown) [CU165]
5 uM Avg Cell # Score (RAW 264.7 macrophages): 105 | 25 uM Avg Cell # Score (RAW 264.7 macrophages): 109 | 5 uM Avg Antibacterial Score [1]: 63 | 25 uM Avg Antibacterial Score [1]: 32

NC1CCN(CC(O)COc2ccc(Cl)cc2Cl)C1 (stereo not shown) [CU166]
5 uM Avg Cell # Score (RAW 264.7 macrophages): 105 | 25 uM Avg Cell # Score (RAW 264.7 macrophages): 108 | 5 uM Avg Antibacterial Score [1]: 44 | 25 uM Avg Antibacterial Score [1]: 19

NC1CCN(CC(O)COc2ccc(F)cc2F)C1 (stereo not shown) [CU167]
5 uM Avg Cell # Score (RAW 264.7 macrophages): 109 | 25 uM Avg Cell # Score (RAW 264.7 macrophages): 113 | 5 uM Avg Antibacterial Score [1]: 75 | 25 uM Avg Antibacterial Score [1]: 58

CCOC(=O)c1cccc(OCC(O)CN2CCC(N)C2)c1 (stereo not shown) [CU168]
5 uM Avg Cell # Score (RAW 264.7 macrophages): 101 | 25 uM Avg Cell # Score (RAW 264.7 macrophages): 111 | 5 uM Avg Antibacterial Score [1]: 73 | 25 uM Avg Antibacterial Score [1]: 55

OC(COc1ccc(F)c(F)c1)CN1CCC(Nc2nccc(C(F)(F)F)n2)CC1 (stereo not shown) [CU169]
5 uM Avg Cell # Score (RAW 264.7 macrophages): 106 | 25 uM Avg Cell # Score (RAW 264.7 macrophages): 91 | 5 uM Avg Antibacterial Score [1]: 84 | 25 uM Avg Antibacterial Score [1]: 6

OC(COc1ccc(F)c(F)c1)CN1CCC(Nc2ncccn2)CC1 (stereo not shown) [CU170]
5 uM Avg Cell # Score (RAW 264.7 macrophages): 100 | 25 uM Avg Cell # Score (RAW 264.7 macrophages): 107 | 5 uM Avg Antibacterial Score [1]: 109 | 25 uM Avg Antibacterial Score [1]: 107

NC1CCN(CC(O)COc2ccc(F)c(F)c2)CC1 (stereo not shown) [CU171]
5 uM Avg Cell # Score (RAW 264.7 macrophages): 108 | 25 uM Avg Cell # Score (RAW 264.7 macrophages): 96 | 5 uM Avg Antibacterial Score [1]: 61 | 25 uM Avg Antibacterial Score [1]: 45

NC1CCN(CC(O)COc2ccc(F)c(F)c2)C1 (stereo not shown) [CU172]
5 uM Avg Cell # Score (RAW 264.7 macrophages): 108 | 25 uM Avg Cell # Score (RAW 264.7 macrophages): 103 | 5 uM Avg Antibacterial Score [1]: 70 | 25 uM Avg Antibacterial Score [1]: 57

NC1CCN(CC(O)COc2ccc(Cl)c(Cl)c2)CC1 (stereo not shown) [CU173]
5 uM Avg Cell # Score (RAW 264.7 macrophages): 98 | 25 uM Avg Cell # Score (RAW 264.7 macrophages): 43 | toxicity to infected macrophages in SAFIRE (RAW 264.7 macrophages; 16 h after treatment): toxic | 5 uM Avg Antibacterial Score [1]: 20 | 25 uM Avg Antibacterial Score [1]: 30

OC(CNC1CCNCC1)COc1ccc(Cl)c(Cl)c1 (stereo not shown) [CU174]
5 uM Avg Cell # Score (RAW 264.7 macrophages): 98 | 25 uM Avg Cell # Score (RAW 264.7 macrophages): 97 | 5 uM Avg Antibacterial Score [1]: 40 | 25 uM Avg Antibacterial Score [1]: 18

CN1CCC(N(C)CC(O)COc2ccc(Cl)c(Cl)c2)C1 (stereo not shown) [CU175]
5 uM Avg Cell # Score (RAW 264.7 macrophages): 108 | 25 uM Avg Cell # Score (RAW 264.7 macrophages): 95 | 5 uM Avg Antibacterial Score [1]: 65 | 25 uM Avg Antibacterial Score [1]: 22

CNC1CCN(CC(O)COc2ccc(F)c(F)c2)C1 (stereo not shown) [CU176]
5 uM Avg Cell # Score (RAW 264.7 macrophages): 102 | 25 uM Avg Cell # Score (RAW 264.7 macrophages): 111 | 5 uM Avg Antibacterial Score [1]: 83 | 25 uM Avg Antibacterial Score [1]: 58

CN(CC(O)COc1ccc(Cl)c(Cl)c1)C1CCNCC1 (stereo not shown) [CU177]
5 uM Avg Cell # Score (RAW 264.7 macrophages): 101 | 25 uM Avg Cell # Score (RAW 264.7 macrophages): 96 | 5 uM Avg Antibacterial Score [1]: 45 | 25 uM Avg Antibacterial Score [1]: 16

CN(CC(O)COc1ccc(F)c(F)c1)C1CCNCC1 (stereo not shown) [CU178]
5 uM Avg Cell # Score (RAW 264.7 macrophages): 99 | 25 uM Avg Cell # Score (RAW 264.7 macrophages): 97 | 5 uM Avg Antibacterial Score [1]: 72 | 25 uM Avg Antibacterial Score [1]: 51

OC(COc1ccc(Cl)c(Cl)c1)CN1CCC(n2ccnc2)CC1 (stereo not shown) [CU179]
5 uM Avg Cell # Score (RAW 264.7 macrophages): 98 | 25 uM Avg Cell # Score (RAW 264.7 macrophages): 91 | 5 uM Avg Antibacterial Score [1]: 36 | 25 uM Avg Antibacterial Score [1]: 19 | IC50 ([1]; Salmonella enterica, TYPHIMURIUM, RAW264.7, read-out: SAFIRE IC50): 45 nM

OC(COc1ccc(Cl)c(Cl)c1)CN1CCN(C2CCOC2)CC1 (stereo not shown) [CU180]
5 uM Avg Cell # Score (RAW 264.7 macrophages): 96 | 25 uM Avg Cell # Score (RAW 264.7 macrophages): 100 | 5 uM Avg Antibacterial Score [1]: 106 | 25 uM Avg Antibacterial Score [1]: 82

OC(COc1ccc(Cl)c(Cl)c1)CN1CCN(C2COC2)CC1 (stereo not shown) [CU181]
5 uM Avg Cell # Score (RAW 264.7 macrophages): 100 | 25 uM Avg Cell # Score (RAW 264.7 macrophages): 101 | 5 uM Avg Antibacterial Score [1]: 109 | 25 uM Avg Antibacterial Score [1]: 94

OC(COc1ccc(Cl)c(Cl)c1)CN1CCN(C2CC2)CC1 (stereo not shown) [CU182]
5 uM Avg Cell # Score (RAW 264.7 macrophages): 102 | 25 uM Avg Cell # Score (RAW 264.7 macrophages): 101 | 5 uM Avg Antibacterial Score [1]: 105 | 25 uM Avg Antibacterial Score [1]: 73

OC(COc1ccc(Cl)c(Cl)c1)CN1CCN(CC2CC2)CC1 (stereo not shown) [CU183]
5 uM Avg Cell # Score (RAW 264.7 macrophages): 103 | 25 uM Avg Cell # Score (RAW 264.7 macrophages): 105 | 5 uM Avg Antibacterial Score [1]: 92 | 25 uM Avg Antibacterial Score [1]: 25

O=C1CN(CC(O)COc2ccc(Cl)c(Cl)c2)CCN1 (stereo not shown) [CU184]
5 uM Avg Cell # Score (RAW 264.7 macrophages): 91 | 25 uM Avg Cell # Score (RAW 264.7 macrophages): 97 | 5 uM Avg Antibacterial Score [1]: 103 | 25 uM Avg Antibacterial Score [1]: 102
